One compound from patent US11471460B2, “Autophagy modulators for use in treating cancer” (The United States of America,as represented by the …, priority 2017, dated 2022) can be followed below.

Each structure is given as a SMILES string.

In assay [1] the test system is U2OS cells. Description: Size of LAMP1-RFP-labeled vacuoles (lysosomes), confocal microscopy. It counts as cell-based, human. As to the method: LAMP1 protein is a lysosomal membrane marker. Nuclei were stained with DAPI. Therefore, the enlarged cytoplasmic vacuoles induced by compounds from this invention are lysosomes.
The selection of circular, enlarged, lysosomes was carried out using a size mask of 0.5 to 5.0 μm^2. Punctate lysosomes were selected with a size mask of 0.1 to 1.5 μm^2. Thresholds were the same for all images. Clustered lysosomes were not included in the size analysis. The mean area (μm^2)±SEM was plotted (O). From 235 to 545 lysosomes were measured for each time point. The number of lysosomes per μm^2 (E) was determined at the beginning and end of this experiment and plotted on a separate Y-axis.

Assay [2] relates to cathepsin D (CTSD) in U2OS cells. Description: Cathepsin D maturation, Western immuno-blotting. Conditions: 4 h. The class given is cell-based, human. As to the method:
Mature and immature cathepsin D (CTSD), LC3-I, LC3-II, and β-actin proteins were identified by Western immuno-blotting, under the same conditions, and detected with specific antibodies and by co-fractionation with molecular mass markers (kDa). Cathepsin D maturation via proteolysis requires acidity.
Total cell lysates were prepared (in 4× dye). Proteins were fractionated at 200V in a NuPAGE 4-12% bis-tris polyacrylamide gel (NP0323, Novex) using NuPAGE MES running buffer (NP0002, Novex) and then stained with PageBlue (24260, Thermo Scientific) in order to quantify the relative amount of histones in each sample. […] Proteins were wet-transferred onto nitrocellulose membranes (162-0112, Bio-Rad) using NuPAGE transfer buffer (NP-0006-1, Novex) for 1 hour at 30V. Membranes were then stained with dilute Ponceau S solution, blocked in 5% milk for 30 minutes at room temperature, and incubated overnight at 4° C. in primary antibody. Membranes were washed with phosphate buffered saline with tween 20 (PBST) three times for 10 min. each, incubated with secondary antibodies in 5% milk for 1 hour, washed three times with PBST again, covered in ECL (SuperSignal West Pico chemiluminescent substrate, 34080, Thermo Scientific) and exposed to film (HyBlot ES, E3218, Denville Scientific).

Assay [3] relates to U2OS cells. The experiment in a line: Tandem sensor RFP-GFP-LC3B: fraction of yellow (neutral pH) puncta. Particulars: 1 μM, 4 hrs. The class given is cell-based, human. As to the method: Confocal microscopic images are shown in FIG. 12A of U2OS cells expressing a modified tandem sensor RFP-GFP-tagged LC3B protein in which the green signal from a mutated GFP was suppressed in an acidic environment, with little or no effect on the red signal from RFP. Thus, autophagosomes with neutral pH would fluoresce yellow, whereas autolysosomes with acidic pH would fluoresce red. These cells were treated with either vehicle or 1 μM compound 1 for 4 hrs. The fraction of yellow puncta, representing autophagosomes with a neutral pH, was quantified in 50 cells from each of three independent experiments (mean±SEM; Student's t-test, p<0.0001) as shown in FIG. 12B. The fraction of yellow puncta increased 4-fold in the presence of compound 1 (right side graph).
To determine whether the accumulation of autophagosomes resulted from induction of autophagy or from disruption of autophagic flux, cells were transfected with a vector expressing a modified tandem sensor RFP-GFP-tagged LC3B protein in which the green signal from a mutated GFP was suppressed in an acidic environment, with little or no effect on the red signal from RFP^41. Therefore, in merged images, only red puncta indicated acidic autolysosomes; yellow puncta indicated either autophagosomes or non-acidic autolysosomes. […]

A further assay concerns 468 human kinases. Description: DiscoverX KINOMEscan profile at 10 μM. Conditions: panel of 468 human kinases. The class given is binding. As to the method: Each kinase was tagged with a unique DNA sequence that allowed the amount of protein bound to the solid support to be quantified by PCR. The top three targets for compound 1 were PIKFYVE, PIP4K2C and MTOR. […] Dissociation constants (Kd) were determined from the amount of kinase captured on the solid support as a function of the test compound concentration (nM) on a log10 scale. Mean Kd values (±range) are given for each compound. The ratio of PIP4K2C to PIKFYVE indicates the relative specificity for these two kinases.
To address this hypothesis, a panel of 468 human kinases were screened for their ability to bind compound 1. […] The top two candidates were PIKFYVE (phosphoinositide kinase FYVE-type zinc finger containing) and PIP4K2C (phosphatidylinositol-5-phosphate 4-kinase). PIKFYVE is a kinase that is essential for mouse development (49) and that prevents endosome enlargement and cytoplasmic vacuolization (50, 51). PIP4K2C is a kinase that is not essential for mouse growth and viability, but it is essential for the immune system (52), mTORC1 signaling (53), and regulation of autophagy (54). The third candidate was MTOR, a kinase that regulates autophagy (55). Therefore, the binding constants (Kd) for all five members of the compound 1-family were determined for each of these three proteins from two independent titration curves, as shown for compound 1.

Assay [4] has as its system osteosarcoma U2OS cells. Description: U2OS cell proliferation. It counts as cell-based, human. The source says: (§1) These effects are dependent on the compound selected, its concentration and the length of time cells are exposed to the compound.
(§2) Cells were obtained from the American Type Culture Collection. BORCS5-KO HeLa cells have been described previously. Osteosarcoma U2OS were routinely seeded in 6-well plates (0.5×10^5 cells/well) and cultured in Dulbecco's Modified Eagle's medium supplemented with L-Glutamine, 4.5 g/L Glucose, Sodium Pyruvate, Phenol Red, and either heat-inactivated or normal 10% fetal calf serum at 37° C. in 5% CO2. Approximately 15-19 hours later, the indicated compound was added in 1:1000 dilutions. Results were the same using either heat-inactivated or normal fetal calf serum. Melanoma A375, embryonic kidney 293T and human foreskin fibroblast Hs27 cells were cultured in the same medium, except that cells were seeded into 12-well plates at 10^3 cells/well.

Assay [5] has as its system osteosarcoma U2OS cells. The experiment in a line: U2OS cell viability (cellular ATP). It counts as cell-based, human.
Text: as §1

For another assay, the system named is melanoma A375 cells. Description: A375 cell viability (CellTiter-Glo ATP, trypan blue live cells). It counts as cell-based, human. Conditions: 0.1 μM. As to the method: To reveal viability, cells were seeded into 96-well plates (1,000 cells/well), and the indicated compound was added the following day. Cells were cultured for four days before quantification of total cellular ATP. […] In separate 12-well plates, attached cells were collected by trypsinization, combined with unattached cells, and stained with trypan blue to identify dead cells. Vehicle was plotted as 0.001 μM compound in order to apply a logarithmic scale. Data were plotted as the mean±SEM for three independent experiments.
as §2, with “Results were the same using either heat-inactivated or normal fetal calf serum.” left out
For orientation: ATP-based viability assays read luminescence as a measure of living cells.

`C1=Nc2ccccc2/C1=C/NNc1nc(Nc2ccccc2)nc(N2CCOCC2)n1` [compound 1]: in the assay on U2OS cells [1] (live cells expressing LAMP1-RFP), the “Time for lysosomal motility and size to revert after removal of the compound” value was “within one hour”. The “Increase in size of LAMP1-labeled vacuoles” value with U2OS cells [1] (within 20 hours, 1 μM) turned out to be 9 fold. Besides, in assay [2], the “Cellular level of mature cathepsin D relative to vehicle treated cells” value is recorded as “about 50%”. Further, in the assay with U2OS cells [3], the “Increase in fraction of yellow puncta” value is listed as 4 fold and the “Puncta that were yellow in merged images” value is “at least 80%”. In addition, the “Number of kinases with binding affinities of 25% or greater” value with 468 human kinases is given as “ten”. Also, the “Efficacy at inhibiting U2OS cell proliferation relative to HCQ or CQ” value with osteosarcoma U2OS cells [4] was 21 times. Also, in the assay on osteosarcoma U2OS cells [4] (0.1 μM), the “Effect on U2OS cells” value is “reduced the proliferation rate”. Further, the “Efficacy at arresting growth and proliferation relative to HCQ and CQ” value in the assay with osteosarcoma U2OS cells [4] (cancer cells that depend on autophagy but are not addicted) came to 20 ×. For the same compound, the “Efficacy at reducing U2OS viability relative to HCQ or CQ” value with osteosarcoma U2OS cells [5] was 13 times. The “Effect on Melanoma A375 cells” value with melanoma A375 cells is “killed”.
